Measured values as given in patent publication US7282491B2, “Prokaryotic proteasomal proteases of Mycobacterium tuberculosis (MTB) as targets for antibiotic therapy” (Cornell Research Foundation, Inc., priority 2002, dated 2007).

How the values were obtained:
wt Mtb [1] = format: cell-based, Mycobacterium tuberculosis
wt Mtb [2] = format: cell-based, Mycobacterium tuberculosis; settings: for augmentation of anti-mycobacterial activity of nitrite, inhibitor added along with nitrite at day 0: pH 6.5
mycobacterial proteasome = mycobacterial proteasome (Mycobacterium tuberculosis, UniProt P9WHT9); settings: tetrapeptide substrate, 0.05% SDS; FIG. 11A
Description: To measure proteasomal protease activity, Mtb was lysed by agitation with zirconia silica beads. The soluble fraction was filtered through a 0.45 micron filter. Aliquots of the filtrate (120 g protein) were incubated with succinyl-leu-leu-val-tyr-alpha-methylcoumarin (SEQ ID NO: 1) in the presence of 0.05% SDS and fluorescence was monitored. […] The 50% inhibitory concentration was determined by applying the Hill equation to data from 2 experiments, each in triplicate.

wt Mtb [3] = system: wt Mtb
tubercle bacilli = settings: cited from earlier work

Chain of mycobacterial proteasome (P9WHT9 58-291): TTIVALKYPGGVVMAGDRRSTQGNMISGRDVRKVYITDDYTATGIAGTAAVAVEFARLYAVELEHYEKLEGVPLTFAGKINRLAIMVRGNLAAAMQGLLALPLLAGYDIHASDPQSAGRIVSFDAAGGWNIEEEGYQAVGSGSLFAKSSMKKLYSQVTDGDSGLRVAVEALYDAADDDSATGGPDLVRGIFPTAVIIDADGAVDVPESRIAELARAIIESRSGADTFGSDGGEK
Chain of mycobacterial proteasome (P9WHU1 whole entry partner): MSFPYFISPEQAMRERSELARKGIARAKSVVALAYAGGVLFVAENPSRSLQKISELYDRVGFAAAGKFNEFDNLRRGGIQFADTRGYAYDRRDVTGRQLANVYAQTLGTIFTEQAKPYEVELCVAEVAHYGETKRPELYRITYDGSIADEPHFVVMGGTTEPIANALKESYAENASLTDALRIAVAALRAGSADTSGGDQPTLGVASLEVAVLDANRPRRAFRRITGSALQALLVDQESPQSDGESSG

CC(C)C[C@H](NC(=O)[C@H](Cc1cccc2ccccc12)NC(=O)N1CCOCC1)B(O)O [MLN-273, N-[4-morpholine]carbonyl-β-[1-naphthyl]-L-alanine-L-leucine boronic acid]
growth of Mtb under standard culture conditions (wt Mtb [1]): suppressed the growth of Mtb
augmentation of anti-mycobacterial activity of nitrite, inhibitor added only at the subculture (wt Mtb [2]): just as effective
augmentation of nitrite-mediated injury of wt Mtb (wt Mtb [2]): augmented nitrite-mediated injury
augmentation of the mycobacteriacidal effect of nitrite, inhibitors and nitrite removed simultaneously (wt Mtb [2]): did not
augmentation of anti-mycobacterial activity of nitrite, inhibitor added along with nitrite at day 0 (wt Mtb [2]): increased the anti-mycobacterial activity of nitrite
inhibition of proteasomal protease activity in Mtb lysates (mycobacterial proteasome): potently blocked proteasomal protease activity
outgrowth of Mtb in culture after nitrite (wt Mtb [3]): enhanced the ability of nitrite to suppress outgrowth of Mtb

CC[C@H](C)[C@H](NC(=O)[C@H]([C@@H](C)CC)N(C)C(C)=O)C(=O)N[C@H](C(=O)N[C@@H](CC(C)C)C(=O)[C@@]1(C)CO1)[C@@H](C)O [epoxomicin]
augmentation of anti-mycobacterial activity of nitrite, inhibitor added only at the subculture (wt Mtb [2]): just as effective
augmentation of the mycobacteriacidal effect of nitrite, inhibitors and nitrite removed simultaneously (wt Mtb [2]): augmented the mycobacteriacidal effect of nitrite
augmentation of anti-mycobacterial activity of nitrite, inhibitor added along with nitrite at day 0 (wt Mtb [2]): increased the anti-mycobacterial activity of nitrite

[N]=O [nitric oxide]
potency of killing tubercle bacilli in vitro (tubercle bacilli): ~150 nM
